How the values were obtained:
Format in all cases: biochemical
human cathepsin L = molecular target: T1, human cathepsin L (Homo sapiens, UniProt P07711); test: Cathepsin L peptidase activity assay (Ki); conditions: read-out: Ki, inhibitors of cathepsin L
T1 construct: purchased CN Biosciences
Method: Unless otherwise stated, all general chemicals and biochemicals were purchased from either the Sigma Chemical Company, Poole, Dorset, U.K or from Fisher Scientific UK, Loughborough, Leicestershire, U.K. Absorbance assays were carried out in flat-bottomed 96-well plates (Spectra; Greiner Bio-One Ltd., Stonehouse, Gloucestershire, U.K.) using a SpectraMax PLUS384 plate reader (Molecular Devices, Crawley, U.K.). Fluorescence high throughput assays were carried out in either 384-well microtitre plates (Corning Costar 3705 plates, Fisher Scientific) or 96-well ‘U’ bottomed Microfluor W1 microtitre plates (Thermo Labsystems, Ashford, Middlesex, U.K.). Fluorescence assays were monitored using a SpectraMax Gemini fluorescence plate reader (Molecular Devices). For substrates employing either a 7-amino-4-methylcoumarin (AMC) or a 7-amino-4-trifluoromethylcoumarin (AFC) fluorophore, assays were monitored at an excitation wavelength of 365 nm and an emission wavelength of 450 nm and the fluorescence plate reader calibrated with AMC. For substrates employing a 3-amino-benzoyl (Abz) fluorophore, assays were monitored at an excitation wavelength of 310 nm and an emission wavelength of 445 nm; the fluorescence plate reader calibrated with 3-amino-benzamide (Fluka). Unless otherwise indicated, all the peptidase substrates were purchased from Bachem UK, St Helens, Merseyside, UK. Substrates utilizing fluorescence resonance energy transfer methodology (i.e. FRET-based substrates) were synthesized at Incenta Limited using published methods (Atherton & Sheppard, Solid Phase Peptide Synthesis, IRL Press, Oxford, U.K, 1989) and employed Abz (2-aminobenzoyl) as the fluorescence donor and 3-nitro-tyrosine [Tyr(NO2)] as the fluorescence quencher (Meldal, M. and Breddam, K., Anal. Biochem, 195, 141-147, 1991). Hydroxyethylpiperazine ethanesulfonate (HEPES), tris-hydroxylmethyl aminomethane (tris) base, bis-tris-propane and all the biological detergents (e.g. CHAPS, zwittergents, etc.) were purchased from CN Biosciences UK, Beeston, Nottinghamshire, U.K. Glycerol was purchased from Amersham Pharmacia Biotech, Little Chalfont, Buckinghamshire, U.K. Stock solutions of substrate or inhibitor were made up to 10 mM in 100% dimethylsulfoxide (DMSO) (Rathburns, Glasgow, U.K.) and diluted as appropriately required. In all cases the DMSO concentration in the assays was maintained at less than 1% (vol./vol.).
Assay protocols were based on literature precedent (Table 4; Barrett, A. J., Rawlings, N. D. and Woessner, J. F., 1998, Handbook of Proteolytic Enzymes, Academic Press, London and references therein) and modified as required to suit local assay protocols. Enzyme was added as required to initiate the reaction and the activity, as judged by the change in fluorescence upon conversion of substrate to product, was monitored over time. All assays were carried out at 25±1° C.
Bovine cathepsin S, human cathepsin L, human cathepsin H and human cathepsin B were obtained from CN Biosciences. Recombinant human cathepsin S, human cathepsin K and human cathepsin X were obtained from Dr. Boris Turk (Josef Stefan Institute, Ljubljana, Slovenia). Unless otherwise stated, all peptidase activity assays were carried out in 10 mM bis-tris-propane (BTP), pH 6.5 containing 1 mM EDTA, 5 mM 2-mercaptoethanol and 1 mM CaCl2. Human cathepsin H activity assays were carried out in 10 mM BTP pH 6.5, 142 mM NaCl2, 1 mM CaCl2, 1 mM EDTA, 1 mM DTT, 0.035 mM Zwittergent 3-16. Human cathepsin K assays were carried out in 100 mM sodium acetate; pH 5.5 containing 20 mM L-cysteine and 1 mM EDTA (Bossard, M. J., et. al., J. Biol. Chem., 21, 12517-12524, 1996). Human cathepsin X assays were carried out in 100 mM sodium acetate; pH 5.5 containing 20 mM L-cysteine; 0.05% (w/v) Brij 35 and 1 mM EDTA (Santamaria, I., et. al., J. Biol. Chem., 273, 16816-16823, 1998; Klemencic, J, et al., Eur. J. Biochem., 267, 5404-5412, 2000). […]

CPB2.8ΔCTE = molecular target: T2, CPB2.8ΔCTE (Leishmania mexicana, UniProt P36400); test: Leishmania mexicana cysteine protease B (CPB) peptidase activity assay (Ki); conditions: Ki, inhibitors of Leismania mexicana CPB protease
T2 construct: Wild-type recombinant CPB without the C-terminal extention (i.e. CPB2.8ΔCTE); Dr. Jeremy Mottram (Wellcome Centre for Molecular Parasitology, University of Glasgow)
T2 sequence (P36400 126-343, stated change not applied): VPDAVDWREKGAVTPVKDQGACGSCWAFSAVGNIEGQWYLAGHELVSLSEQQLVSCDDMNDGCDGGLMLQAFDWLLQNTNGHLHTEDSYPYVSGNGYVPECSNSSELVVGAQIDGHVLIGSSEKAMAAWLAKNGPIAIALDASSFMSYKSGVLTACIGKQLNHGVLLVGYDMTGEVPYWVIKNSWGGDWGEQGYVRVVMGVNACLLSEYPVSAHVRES
Summary of the method: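 Apparent Ki was derived by regression of activity against inhibitor concentration, assuming pure-competitive reversible binding. Reaction: 0.25 nM CPB lacking the C-terminal extension, pH 5.5 acetate buffer (1 mM EDTA, 200 mM NaCl, 10 mM DTT), 25 °C, followed by continuous substrate fluorescence.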

Wild-type cruzipain = Wild-type cruzipain (Trypanosoma cruzi, UniProt P25779); test: Trypanosoma cruzi cruzipain peptidase activity assay (Ki); conditions: read-out: Ki, inhibitors of cruzain and cruzipains
Sequence of Wild-type cruzipain (P25779 whole entry): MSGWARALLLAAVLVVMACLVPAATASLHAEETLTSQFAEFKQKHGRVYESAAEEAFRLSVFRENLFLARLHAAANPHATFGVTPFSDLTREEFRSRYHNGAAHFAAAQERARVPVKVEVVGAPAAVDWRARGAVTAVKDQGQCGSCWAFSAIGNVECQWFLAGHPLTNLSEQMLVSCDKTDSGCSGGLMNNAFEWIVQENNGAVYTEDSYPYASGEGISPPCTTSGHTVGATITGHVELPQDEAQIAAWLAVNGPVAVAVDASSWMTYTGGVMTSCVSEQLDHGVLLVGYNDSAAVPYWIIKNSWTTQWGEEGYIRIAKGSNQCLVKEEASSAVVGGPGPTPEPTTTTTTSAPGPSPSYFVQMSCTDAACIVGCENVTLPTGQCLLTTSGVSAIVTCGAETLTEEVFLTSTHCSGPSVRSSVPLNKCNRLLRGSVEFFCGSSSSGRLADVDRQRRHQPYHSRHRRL
Summary of the method: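 Native cruzipain from T. cruzi Dm28 epimastigotes, 2.5 nM, in 100 mM sodium phosphate pH 6.75 with 1 mM EDTA and 10 mM L-cysteine, 25 °C, DMSO <1%. Rates taken from continuous fluorogenic substrate read; Ki by regression assuming reversible pure-competitive inhibition.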

T1 sequence (P07711 114-333): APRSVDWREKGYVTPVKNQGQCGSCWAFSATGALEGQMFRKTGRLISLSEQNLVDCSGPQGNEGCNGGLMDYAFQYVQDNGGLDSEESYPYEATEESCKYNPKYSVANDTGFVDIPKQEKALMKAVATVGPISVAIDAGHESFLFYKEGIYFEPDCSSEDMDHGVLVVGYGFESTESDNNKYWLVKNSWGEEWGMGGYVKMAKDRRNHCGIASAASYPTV

Q: `CC(C)C[C@H](NC(=O)c1cccc(CN)c1)C(=O)N1CC[C@@H]2[C@H]1C(=O)CN2C(=O)Nc1ccccc1` [Example 175, (3aS,6aR)-4-[(2S)-2-(3-Aminomethyl-benzoylamino)-4-methyl-pentanoyl]-3-oxo-hexahydro-pyrrolo[3,2-b]pyrrole-1-carboxylic acid phenylamide] was tested. Which Ki (human cathepsin L) did it give?
A: < 5 µM

Q: And the Ki (CPB2.8ΔCTE)?
A: < 5 µM

Q: And the Ki (Wild-type cruzipain)?
A: < 5 µM

Q: With `CC(C)C[C@H](NC(=O)c1cccc(CN)c1)C(=O)N1CC[C@@H]2[C@H]1C(=O)CN2C(=O)Cc1ccc(F)cc1` [Example 180, (3aR,6aS)-3-Aminomethyl-N-((1S)-1-{4-[2-(4-fluoro-phenyl)-acetyl]-6-oxo-hexahydro-pyrrolo[3,2-b]pyrrole-1-carbonyl}-3-methyl-butyl)-benzamide] as the compound, how does the Ki (human cathepsin L) read?
A: < 5 µM

Q: And the Ki (CPB2.8ΔCTE)?
A: < 5 µM

Q: And the Ki (Wild-type cruzipain)?
A: < 5 µM

Q: What does the source list for `CC(C)C[C@H](NC(=O)c1ccc(N(C)C)cc1)C(=O)N1CC[C@@H]2[C@H]1C(=O)CN2C(=O)c1cccc(C(F)(F)F)c1` [Example 68, (3aR,6aS)-4-Dimethylamino-N-{(1S)-3-methyl-1-[6-oxo-4-(3-trifluoromethyl-benzoyl)-hexahydro-pyrrolo[3,2-b]pyrrole-1-carbonyl]-butyl}-benzamide]?
A: Ki (human cathepsin L): < 5 µM; Ki (CPB2.8ΔCTE): < 5 µM; Ki (Wild-type cruzipain): < 5 µM

Q: `CC(=O)N1CCC[C@H]1C(=O)N1CC(=O)[C@@H]2[C@H]1CCN2C(=O)[C@H](CC(C)C)NC(=O)c1ccc(N(C)C)cc1` [Example 216, (3aR,6aS)-N-{(1S)-1-[4-((2S)-1-Acetyl-pyrrolidine-2-carbonyl)-6-oxo-hexahydro-pyrrolo[3,2-b]pyrrole-1-carbonyl]-3-methyl-butyl}-4-dimethylamino-benzamide] was tested. Which Ki (human cathepsin L) did it give?
A: < 5 µM

Q: And the Ki (CPB2.8ΔCTE)?
A: < 5 µM

Q: And the Ki (Wild-type cruzipain)?
A: < 5 µM

Q: With `CC[C@H](NC(C)=O)C(=O)N1CC(=O)[C@@H]2[C@H]1CCN2C(=O)[C@H](CC(C)C)NC(=O)c1ccc(N(C)C)cc1` [Example 204, (3aR,6aS)-N-{(1S)-1-[4-((2S)-2-Acetylamino-butyryl)-6-oxo-hexahydro-pyrrolo[3,2-b]pyrrole-1-carbonyl]-3-methyl-butyl}-4-dimethylamino-benzamide] as the compound, how does the Ki (human cathepsin L) read?
A: < 5 µM

Q: What about the Ki (CPB2.8ΔCTE) of the same compound?
A: < 5 µM

Q: What about the Ki (Wild-type cruzipain) of the same compound?
A: < 5 µM

Q: Which results are given for `CC(C)C[C@H](NC(=O)c1ccc([N+](C)(C)[O-])cc1)C(=O)N1CC[C@@H]2[C@H]1C(=O)CN2C(=O)c1ccccc1` [Example 117, (3aR,6aS)-N-[(1S)-1-(4-Benzoyl-6-oxo-hexahydro-pyrrolo[3,2-b]pyrrole-1-carbonyl)-3-methyl-butyl]-4-(N-oxy-dimethylamino)-benzamide]?
A: Ki (human cathepsin L): < 5 µM; Ki (CPB2.8ΔCTE): < 5 µM; Ki (Wild-type cruzipain): < 5 µM

Q: `CC(C)C[C@H](NC(=O)c1cccc(CN)c1)C(=O)N1CC[C@@H]2[C@H]1C(=O)CN2C(=O)[C@@H](N)CC(C)C` [Example 246, (3aR,6aS)-3-Aminomethyl-N-{(1S)-1-[4-((2S)-2-amino-4-methyl-pentanoyl)-6-oxo-hexahydro-pyrrolo[3,2-b]pyrrole-1-carbonyl)-3-methyl-butyl}-benzamide] was tested. Which Ki (human cathepsin L) did it give?
A: < 5 µM

Q: What about the Ki (CPB2.8ΔCTE) of the same compound?
A: < 5 µM

Q: What about the Ki (Wild-type cruzipain) of the same compound?
A: < 5 µM

Q: What does the source list for `Cc1cc(C)cc(C(=O)N2CC(=O)[C@@H]3[C@H]2CCN3C(=O)[C@H](CC(C)C)NC(=O)c2ccc(N(C)C)cc2)c1` [Example 111, (3aR,6aS)-4-Dimethylamino-N-{(1S)-1-[4-(3,5-dimethyl-benzoyl)-6-oxo-hexahydro-pyrrolo[3,2-b]pyrrole-1-carbonyl]-3-methyl-butyl}-benzamide]?
A: Ki (human cathepsin L): < 5 µM; Ki (CPB2.8ΔCTE): < 5 µM; Ki (Wild-type cruzipain): < 5 µM

Q: What does the source list for `CC(C)C[C@H](NC(=O)c1ccc(N(C)C)cc1)C(=O)N1CC[C@@H]2[C@H]1C(=O)CN2C(=O)c1cccc(F)c1` [Example 63, (3aR,6aS)-4-Dimethylamino-N-{(1S)-1-[4-(3-fluoro-benzoyl)-6-oxo-hexahydro-pyrrolo[3,2-b]pyrrole-1-carbonyl]-3-methyl-butyl}-benzamide]?
A: Ki (human cathepsin L): < 5 µM; Ki (CPB2.8ΔCTE): < 5 µM; Ki (Wild-type cruzipain): < 5 µM

Q: What does the source list for `CC(=O)N[C@@H](CC(C)C)C(=O)N1CC(=O)[C@@H]2[C@H]1CCN2C(=O)[C@H](CC1CCCCC1)NC(=O)c1ccco1` [Example 295, (3aR,6aS)-Furan-2-carboxylic acid {(1S)-2-[4-((2S)-2-acetylamino-4-methyl-pentanoyl)-6-oxo-hexahydro-pyrrolo[3,2-b]pyrrole-1-yl]-1-cyclohexylmethyl-2-oxo-ethyl}-amide]?
A: Ki (human cathepsin L): < 5 µM; Ki (CPB2.8ΔCTE): < 5 µM; Ki (Wild-type cruzipain): < 5 µM

Q: Which Ki (human cathepsin L) does the source give for `CC(C)C[C@H](NC(=O)c1cccc(CN)c1)C(=O)N1CC[C@@H]2[C@H]1C(=O)CN2C(=O)Cc1cccc(F)c1` [Example 179, (3aR,6aS)-3-Aminomethyl-N-((1S)-1-{4-[2-(3-fluoro-phenyl)-acetyl]-6-oxo-hexahydro-pyrrolo[3,2-b]pyrrole-1-carbonyl}-3-methyl-butyl)-benzamide] here?
A: < 5 µM

Q: What about the Ki (CPB2.8ΔCTE) of the same compound?
A: < 5 µM

Q: What does the source list for `CC(C)C[C@H](NC(=O)c1cccc(CN)c1)C(=O)N1CC[C@@H]2[C@H]1C(=O)CN2C(=O)Cc1ccccc1` [Example 118, (3aR,6aS)-3-Aminomethyl-N-[(1S)-3-methyl-1-(6-oxo-4-phenylacetyl-hexahydro-pyrrolo[3,2-b]pyrrole-1-carbonyl)-butyl]-benzamide]?
A: Ki (human cathepsin L): < 5 µM; Ki (CPB2.8ΔCTE): < 5 µM; Ki (Wild-type cruzipain): < 5 µM
